Literature values as cited in US20070104788A1, “Once-daily administration of central nervous system drugs” (priority 2005, published 2007).
Read-outs that look alike come from different tables or passages of the source.

Details: for half life: background statement

Row | Compound | Half-Life Elimination (parent drug) [h] | Half-Life Elimination (after a meal) | Half-Life Elimination (fasting) | half life [h] | Half-Life Elimination (metabolite of tramadol) [h]
1 | COc1ccc2c3c1O[C@H]1C(=O)CC[C@@]4(O)[C@@H](C2)N(C)CC[C@]314 [oxycodone] | 0.4 | – | – | – | –
2 | Cc1cc(C)cc(OCC2CNC(=O)O2)c1 (stereo not shown) [metaxolone] | – | 2.4 ± 1.2 (after a meal) hours | 9.2 ± 4.8 (fasting) hours | – | –
3 | COc1cccc([C@@]2(O)CCCC[C@H]2CN(C)C)c1 (racemic) [tramadol] | 5 to 6 | – | – | 6.3 | 7
4 | CN(C)C[C@H]1CCCC[C@]1(O)c1cccc(O)c1 [Ml] | – | – | – | 7.4 | –
